These results are taken from patent publication US9440982B2 (Eolas Therapeutics, Inc., priority 2012, dated 2016).

One data set has as its target T1, OX1 (Homo sapiens, UniProt O43613).
T1 construct: expressed in transfected cells; host or cells: CHO (CHO-OX1, kept under selection antibiotic)
T1 sequence (O43613 1-425): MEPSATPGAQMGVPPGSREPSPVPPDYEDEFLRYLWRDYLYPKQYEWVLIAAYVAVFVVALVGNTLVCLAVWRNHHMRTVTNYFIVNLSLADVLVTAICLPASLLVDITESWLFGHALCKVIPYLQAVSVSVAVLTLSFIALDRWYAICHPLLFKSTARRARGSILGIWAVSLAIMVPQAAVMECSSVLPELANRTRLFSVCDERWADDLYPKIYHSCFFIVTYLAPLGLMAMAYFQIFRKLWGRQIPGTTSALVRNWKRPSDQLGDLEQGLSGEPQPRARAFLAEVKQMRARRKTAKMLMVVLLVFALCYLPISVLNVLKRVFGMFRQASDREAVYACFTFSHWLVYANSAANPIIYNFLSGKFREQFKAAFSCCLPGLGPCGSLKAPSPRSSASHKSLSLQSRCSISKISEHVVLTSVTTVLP
Put plainly: Orexin receptor cell-based functional assay, [Ca2+]i by FLIPR, CHO-OX1 cells. In a few lines:
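Antagonist mode FLIPR calcium read in CHO-OX1 and CHO-OX2 lines. Test compounds, dosed 0.1 nM-10 μM, preincubated 30 min after 37° C dye loading with 2.5 mM probenecid (calcium4 for 30 min or calcium6 for 2 h).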

A further data set has as its target T2, OX2 (Homo sapiens, UniProt O43614).
T2 construct: expressed in transfected cells; host or cells: CHO (CHO-OX2, kept under selection antibiotic)
T2 sequence (O43614 1-444): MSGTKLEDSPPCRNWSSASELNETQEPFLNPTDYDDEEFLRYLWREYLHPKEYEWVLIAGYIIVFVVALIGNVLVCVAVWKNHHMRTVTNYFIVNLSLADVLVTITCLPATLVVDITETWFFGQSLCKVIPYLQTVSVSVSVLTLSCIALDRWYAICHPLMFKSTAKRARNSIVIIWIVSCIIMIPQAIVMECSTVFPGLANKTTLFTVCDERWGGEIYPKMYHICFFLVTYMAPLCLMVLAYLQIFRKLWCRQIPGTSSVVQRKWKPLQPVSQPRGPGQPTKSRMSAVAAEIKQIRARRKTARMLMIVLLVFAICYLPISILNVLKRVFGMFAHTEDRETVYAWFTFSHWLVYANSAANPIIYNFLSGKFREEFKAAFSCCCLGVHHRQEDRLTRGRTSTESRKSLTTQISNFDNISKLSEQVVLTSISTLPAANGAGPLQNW
Put plainly: Orexin receptor cell-based functional assay, [Ca2+]i by FLIPR, CHO-OX2 cells. The conditions noted are these: [Ca2+]i by FLIPR, antagonist dose-range 0.1 nM-10 μM, EC90 of OXA, read-out: OX2. How it is done:
Measurement of [Ca^2+]i using a FLIPR: CHO—OX1 or CHO—OX2 cells are seeded into black-walled clear-base 384-well plates (Costar) at a density of 20,000 cells per well in F12-K medium supplemented with 10% FBS and selection antibiotic (500 ug/ml G418 or 15 ug/ml Blasticidin) and cultured overnight. The cells are incubated with equal volume of calcium4 loading buffer (Molecular Devices, Inc.) containing 2.5 mM probenecid at 37° C. for 30 min, followed by putative OX1 or OX2 receptor antagonists (dose-range 0.1 nM-10 μM) for another 30 min.
The cells are incubated with equal volume of calcium6 loading buffer (Molecular Devices, Inc.) containing 2.5 mM probenecid at 37° C. for 2 h, followed by test compounds (dose-range 0.1 nM-10 μM) for another 30 min.

Another data set concerns the target T3, CYP3A4 (Homo sapiens, UniProt P08684).
T3 construct: pre-incubated with human liver microsomes and NADPH; from tissue; host or cells: human liver microsomes
Put plainly: Cytochrome P450 inhibition assay (midazolam hydroxylation). Type of data set: in vitro ADME. The conditions noted are these: human, human liver microsomes, probe midazolam (hydroxylation to 1′-hydroxymidazolam), 10 μM test compound, midazolam at approximately its Km. In a few lines: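 Percent inhibition of midazolam 1′-hydroxylation by 10 μM compound was measured, midazolam dosed at about Km. Time-dependent inhibition was probed by a 30 min preincubation of compound with human liver microsomes and NADPH ahead of substrate, compared against samples without preincubation.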
Background: Liver microsomes are a subcellular fraction often used to study metabolism.

The mark [1] stands for this setting: CHO-OX1 cells, [Ca2+]i by FLIPR, antagonist dose-range 0.1 nM-10 μM, EC90 of OXA, read-out: OX1.

Read-outs that look alike come from different tables or passages of the source.

T3 sequence (P08684 whole entry): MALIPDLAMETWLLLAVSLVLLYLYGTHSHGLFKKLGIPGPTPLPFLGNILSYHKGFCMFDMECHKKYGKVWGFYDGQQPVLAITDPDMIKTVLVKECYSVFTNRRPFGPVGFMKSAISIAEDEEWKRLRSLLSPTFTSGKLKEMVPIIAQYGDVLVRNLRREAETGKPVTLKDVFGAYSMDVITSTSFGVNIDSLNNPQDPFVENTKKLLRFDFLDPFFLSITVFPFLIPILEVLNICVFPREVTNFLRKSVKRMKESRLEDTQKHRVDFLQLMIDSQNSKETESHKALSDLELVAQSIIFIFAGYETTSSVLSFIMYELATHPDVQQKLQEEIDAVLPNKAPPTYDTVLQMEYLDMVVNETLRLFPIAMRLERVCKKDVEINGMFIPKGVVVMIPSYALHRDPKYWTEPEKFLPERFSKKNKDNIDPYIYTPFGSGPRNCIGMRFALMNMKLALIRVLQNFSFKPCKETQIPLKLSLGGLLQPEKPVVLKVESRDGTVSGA

For `Cc1c(F)ccc(-c2ncccn2)c1C(=O)N1CCC[C@@H](C)[C@H]1CNc1ncc(C(F)(F)F)cn1` [Example A387, (3-fluoro-2-methyl-6-(pyrimidin-2-yl)phenyl)((2S,3R)-3-methyl-2-(((5-(trifluoromethyl)pyrimidin-2-yl)amino)methyl)piperidin-1-yl)methanone], the IC50 is 30 nM on OX1 (setting [1]) and more than 5000 nM at OX2.

For the molecule `Cc1ccc(-c2ncccn2)c(C(=O)N2CCC[C@@H](C)[C@H]2CNc2ccc(C(F)(F)F)cn2)c1F` [Example A320, (2-Fluoro-3-methyl-6-(pyrimidin-2-yl)phenyl)((2S,3R)-3-methyl-2-(((5-(trifluoromethyl)pyridin-2-yl)amino)methyl)piperidin-1-yl)methanone], the results for the IC50 at OX1 (setting [1]) and on OX2 were 2 nM and 1400 nM, respectively.

In the case of `Cc1ccc(F)c(C(=O)N2CCC[C@@H](C)[C@H]2CNc2ccc(C(F)(F)F)cn2)c1-n1nccn1` [Example A352, (6-Fluoro-3-methyl-2-(2H-1,2,3-triazol-2-yl)phenyl)((2S,3R)-3-methyl-2-(((5-(trifluoromethyl)pyridin-2-yl)amino)methyl)piperidin-1-yl)methanone], the IC50 came out at 4 nM at OX1 (setting [1]) and 1500 nM at OX2.

Consider `Cc1cc(-n2nccn2)c(C(=O)N2CCC[C@@H](C)[C@H]2CNc2ccc(C(F)(F)F)cn2)cc1F` [Example A360, (5-Fluoro-4-methyl-2-(2H-1,2,3-triazol-2-yl)phenyl)((2S,3R)-3-methyl-2-(((5-(trifluoromethyl)pyridin-2-yl)amino)methyl)piperidin-1-yl)methanone], for which the IC50 at OX2 is more than 5000 nM.

Take `Cc1c(F)ccc(-c2ncccn2)c1C(=O)N1CCC[C@@H](C)[C@H]1CNc1ccc(C(F)(F)F)cn1` [Example A386, (3-fluoro-2-methyl-6-(pyrimidin-2-yl)phenyl)((2S,3R)-3-methyl-2-(((5-(trifluoromethyl)pyridin-2-yl)amino)methyl)piperidin-1-yl)methanone]: the IC50 was 5 nM on OX1 (setting [1]) and more than 5000 nM on OX2.

As for `C[C@@H]1CCCN(C(=O)c2cc(F)cc(F)c2-n2nccn2)[C@@H]1CNc1ccc(C(F)(F)F)cn1` [Example A328, (3,5-Difluoro-2-(2H-1,2,3-triazol-2-yl)phenyl)((2S,3R)-3-methyl-2-(((5-(trifluoromethyl)pyridin-2-yl)amino)methyl)piperidin-1-yl)methanone], the IC50 at OX2 was more than 5000 nM.

With `Cc1ccc(-c2cnn(C)c2)c(C(=O)N2CCC[C@@H](C)[C@H]2CNc2nc3ccc(Cl)cc3o2)c1` [Example A10, ((2S,3R)-2-(((6-Chlorobenzo[d]oxazol-2-yl)amino)methyl)-3-methylpiperidin-1-yl)(5-methyl-2-(1-methyl-1H-pyrazol-4-yl)phenyl)methanone], the IC50 at OX1 (setting [1]) came out at 81 nM. At CYP3A4, this molecule had an inhibition at 10 µM of 98%.

`Cc1nc(C(=O)N2CCC[C@H](C)[C@@H]2CNc2ccc(C(F)(F)F)cn2)c(-c2ccc(F)cc2)s1` [Example A43, (5-(4-Fluorophenyl)-2-methylthiazol-4-yl)((2R,3S)-3-methyl-2-(((5-(trifluoromethyl)pyridin-2-yl)amino)methyl)piperidin-1-yl)methanone]: the IC50 at OX1 (setting [1]) was determined as 670 nM; at OX1 (Table 6, racemate vs enantiomers, read-out: OX1 IC50), 670 nM. The molecule also returned an inhibition at 10 µM at CYP3A4 of 55%.

Turning to `Cc1ccc(-n2nccn2)c(C(=O)N2CCC[C@@H](C)[C@H]2CNc2ncc(C(F)(F)F)cc2F)n1` [Example A188, ((2S,3R)-2-(((3-Fluoro-5-(trifluoromethyl)pyridin-2-yl)amino)methyl)-3-methylpiperidin-1-yl)(6-methyl-3-(2H-1,2,3-triazol-2-yl)pyridin-2-yl)methanone], the IC50 at OX1 (setting [1]) was 1 nM. In addition, the inhibition at 10 µM against CYP3A4 is 59%.

In the case of `Cc1ccc(-c2cccnc2)c(C(=O)N2CCC[C@@H](C)[C@H]2CNc2ncc(C(F)(F)F)cn2)n1` [Example A223, ((2S,3R)-3-Methyl-2-(((5-(trifluoromethyl)pyrimidin-2-yl)amino)methyl)piperidin-1-yl)(6-methyl-[3,3′-bipyridin]-2-yl)methanone], the IC50 on OX1 (setting [1]) came out at 37 nM. The molecule also came in with an inhibition at 10 µM against CYP3A4 of 93%.

With `Cc1ccc(-n2nccn2)c(C(=O)N2CCC[C@@H](C)[C@H]2CN(C)c2ccc(C(F)(F)F)cn2)n1` [Example A194, ((2S,3R)-3-Methyl-2-((methyl(5-(trifluoromethyl)pyridin-2-yl)amino)methyl)piperidin-1-yl)(6-methyl-3-(2H-1,2,3-triazol-2-yl)pyridin-2-yl)methanone], on OX1 (setting [1]), the IC50 was determined as 6 nM. The inhibition at 10 µM against CYP3A4 stood at 79%.

With `Cc1ccc(-n2nccn2)c(C(=O)N2CCC[C@@H](C)[C@H]2CNc2ccc(C(F)(F)F)cn2)n1` [Example A174, ((2S,3R)-3-Methyl-2-(((5-(trifluoromethyl)pyridin-2-yl)amino)methyl)piperidin-1-yl)(6-methyl-3-(2H-1,2,3-triazol-2-yl)pyridin-2-yl)methanone], the IC50 on OX1 (setting [1]) worked out at 1 nM. Moreover, at 10 µM the inhibition at CYP3A4 was 51%.

In the case of `Cc1ccc(-n2nccn2)c(C(=O)N2CCC[C@@H](C)[C@H]2CNc2nc3cc(F)ccc3o2)c1` [Example A129, ((2S,3R)-2-(((5-Fluorobenzo[d]oxazol-2-yl)amino)methyl)-3-methylpiperidin-1-yl)(5-methyl-2-(2H-1,2,3-triazol-2-yl)phenyl)methanone], on OX1 (setting [1]), the IC50 turned out to be 3 nM. The inhibition at 10 µM at CYP3A4 worked out at 64%.

Consider `Cc1ccc(-c2ncccn2)c(C(=O)N2CCC[C@@H](C)[C@H]2CNc2ncc(C(F)(F)F)cn2)n1` [Example A184, ((2S,3R)-3-Methyl-2-(((5-(trifluoromethyl)pyrimidin-2-yl)amino)methyl)piperidin-1-yl)(6-methyl-3-(pyrimidin-2-yl)pyridin-2-yl)methanone], for which the IC50 on OX1 (setting [1]) is 5 nM. Besides, the inhibition at 10 µM at CYP3A4 came to 34%.

Turning to `Cc1ccc(-n2nccn2)c(C(=O)N2CCC[C@@H](C)[C@H]2CNc2ccc(C(F)(F)F)nn2)c1` [Example A119, ((2S,3R)-3-Methyl-2-(((6-(trifluoromethyl)pyridazin-3-yl)amino)methyl)piperidin-1-yl)(5-methyl-2-(2H-1,2,3-triazol-2-yl)phenyl)methanone], the IC50 on OX1 (setting [1]) was 19 nM. For the same molecule, the inhibition at 10 µM against CYP3A4 came to 59%.

For `Cc1ccc(-n2nccn2)c(C(=O)N2CCC[C@@H](C)[C@H]2CNc2ccc(C3(C#N)CC3)cn2)c1` [Example A140, 1-(6-((((2S,3R)-3-Methyl-1-(5-methyl-2-(2H-1,2,3-triazol-2-yl)benzoyl)piperidin-2-yl)methyl)amino)pyridin-3-yl)cyclopropanecarbonitrile], the IC50 at OX1 (setting [1]) came out at 13 nM. Further, the inhibition at 10 µM on CYP3A4 worked out at 64%.

On to `C[C@@H]1CCCN(C(=O)c2cc(C#N)ccc2-n2nccn2)[C@@H]1CNc1ncc(C(F)(F)F)cn1` [Example A322, 3-((2S,3R)-3-Methyl-2-(((5-(trifluoromethyl)pyrimidin-2-yl)amino)methyl)piperidine-1-carbonyl)-4-(2H-1,2,3-triazol-2-yl)benzonitrile], for which the IC50 at OX1 (setting [1]) is 11 nM. On CYP3A4, this molecule showed an inhibition at 10 µM of 40%.

With `Cc1ccc(-n2nccn2)c(C(=O)N2CCC[C@@H](C)[C@H]2CNc2ncccc2C(F)(F)F)c1` [Example A88, ((2S,3R)-3-Methyl-2-(((3-(trifluoromethyl)pyridin-2-yl)amino)methyl)piperidin-1-yl)(5-methyl-2-(2H-1,2,3-triazol-2-yl)phenyl)methanone], the IC50 on OX1 (setting [1]) stood at 600 nM. The same molecule had an inhibition at 10 µM at CYP3A4 of 75%.

In general, inhibition refers to how much of the control response was suppressed. Low readings indicate a weak effect, high ones a strong effect.
